Test results taken from patent US7524849B2, “5-arylpyrimidines as anticancer agents” (Wyeth Holdings Corporation, priority 2003, dated 2009).
Marks after values point to notes of the source that are not given here.

Key:
[1] = test system: highly purified tubulin (tubulin heterodimer); test: Competitive binding test, [3H]colchicine; set-up: species or system bovine; conditions: competitor 100 μM, [3H]colchicine 50 nM, percent of binding to control without competitor
Method: (§1) Medium is RPMI-1640 with L-glutamine, supplemented with 10% heat-inactivated fetal calf serum, 100 units/mL penicillin, and 100 μg/mL streptomycin (Gibco, Grand Island, N.Y.). Microtubule-associated protein (MAP)-rich tubulin, containing about 70% tubulin and 30% MAPs (#ML113), and highly purified tubulin (>99% pure, #TL238), both from bovine brain, are obtained from Cytoskeleton, Inc., Denver, Colo. PEM buffer (80 mM piperazine-N,N′-bis[2-ethanesulfonic acid], pH 6.9, 1 mM ethylene glycol-bis(β-aminoethyl ether)-N,N,N′,N′-tetraacetic acid, 1 mM magnesium chloride) and guanosine 5′-triphosphate (GTP) are also obtained from Cytoskeleton. […] [^3H]vinblastine, specific activity 9.60 Ci/mmol and MicroSpin G-50 columns are obtained from Amersham Biosciences (Piscataway, N.J.). […] Other reagents are obtained from Sigma (St. Louis, Mo.).
(§2) The binding of examples of this invention to highly purified tubulin is studied by competitive inhibition methods.
These solutions are incubated at 24° for 1 hr and then applied to MicroSpin G-50 columns which are centrifuged for 2 min at 3000 rpm in an Eppendorf 5415C microfuge. An aliquot of each column effluent (containing tubulin and bound radioligand) is mixed with scintillation fluid and counted in a liquid scintillation spectrometer. […] Quadruplicates are averaged, and the ability of the competitor to inhibit the binding of the radioligand is expressed as a percentage of control binding in the absence of any competitor.

[2] = test system: U87-MG Human Glioblastoma; test: Human tumor xenograft test, U87-MG glioblastoma; type: in vivo, athymic mice; conditions: for T/C on day 0 / T/C on day 3 / T/C on day 7 / T/C on day 10: schedule day 1, U87-MG
[3] = test system: polymerized tubulin (microtubules); test: Competitive binding test, [3H]paclitaxel; set-up: species or system bovine; conditions: competitor 20 μM (5 μM for unlabeled paclitaxel)
Method: as §1, §2
The reactions are then centrifuged at top speed in an Eppendorf 5415C microfuge for 20 min at room temperature in order to pellet the microtubule protein. Triplicate aliquots of each supernatant are mixed with scintillation fluid and counted in a liquid scintillation spectrometer. […] The ability of each competitor to inhibit radioligand binding to pelleted protein is expressed as a percent of controls without any competitor.

[4] = U87-MG glioblastoma, intravenously on day 1 with 5 mg/kg

[3H]Paclitaxel binding, Mean [3] | Compound | [3H]Colchicine binding, Mean [1] | T/C on day 0 ([2]; 1 mg/kg IV) | T/C on day 3 ([2]; 1 mg/kg IV) | T/C on day 7 ([2]; 1 mg/kg IV) | T/C on day 10 ([2]; 1 mg/kg IV) | T/C on day 0 ([2]; 5 mg/kg IV) | T/C on day 3 ([2]; 5 mg/kg IV) | T/C on day 7 ([2]; 5 mg/kg IV) | T/C on day 10 ([2]; 5 mg/kg IV) | T/C on day 0 ([2]; 10 mg/kg IV) | T/C on day 3 ([2]; 10 mg/kg IV) | T/C on day 7 ([2]; 10 mg/kg IV) | compound toxicity [2, 4] | growth of xenografts [2, 4]
– | CC[C@]1(O)C[C@H]2CN(CCc3c([nH]c4ccccc34)[C@@](C(=O)OC)(c3cc4c(cc3OC)N(C=O)[C@H]3[C@@](O)(C(=O)OC)[C@H](OC(C)=O)[C@]5(CC)C=CCN6CC[C@]43[C@@H]65)C2)C1 [Vincristine, reference compound] | 99 % of control | – | – | – | – | – | – | – | – | – | – | – | – | –
– | CNCCCOc1cc(F)c(-c2c(Cl)nc(-c3cnccn3)nc2N[C@@H](C)C(F)(F)F)c(F)c1.Cl [Example 24a, 6-Chloro-5-{2,6-difluoro-4-[3-(methylamino)propoxy]phenyl}-2-pyrazin-2-yl-N-[(1S)-2,2,2-trifluoro-1-methylethyl]pyrimidin-4-amine hygrogen chloride] | – | 1.03 | 0.71* | 0.75 | 0.86 | 1.04 | 0.41** | 0.21** | 0.17** | 1.04 | 0.31** | Toxic | some compound toxicity is also observed | inhibits the growth
35 % of control | CC(=O)O[C@H]1C(=O)[C@@]2(C)[C@H]([C@H](OC(=O)c3ccccc3)[C@]3(O)C[C@H](OC(=O)[C@H](O)[C@@H](NC(=O)c4ccccc4)c4ccccc4)C(C)=C1C3(C)C)[C@]1(OC(C)=O)CO[C@@H]1C[C@@H]2O [Paclitaxel, reference compound] | 93 % of control | – | – | – | – | – | – | – | – | – | – | – | – | –
